{"source": "patent US20100249205A1", "about": "(ARIZONA BOARD OF REGENTS, priority 2005, published 2010)", "key": {"NCI cell panel": {"test_system": "NCI cell panel", "assay": "Cytotoxicity, NCI cell panel (growth inhibition, MTT assay)", "conditions": "Homo sapiens, read-out: Cytotoxicity: NCI cell panel IC50", "from_the_text": "The proliferation of cells may be dependent on the PI-3 kinase-Akt-mTOR signaling pathway. In addition, signaling through PI-3 kinase and Akt appears to inhibit apoptosis. […] The MTT assay is a standard colorimetric assay for measuring cellular proliferation (cell growth). It is universally used to determine cytotoxicity of potential medicinal agents and other toxic materials. Yellow MTT (3-(4,5-Dimethylthiazol-2-yl)-2,5-diphenyltetrazolium bromide) is reduced to purple formazan in the mitochondria of living cells. This reduction takes place only when mitochondrial reductase enzymes are active, and therefore conversion is directly related to the number of viable (living) cells. […] Toxicities are measured at the maximum tolerated dose or the highest dose tested. […] Alanine aminotranferease (ALT) and aspartate aminotransferase (AST) are enzymes located in liver cells that leak out into the general circulation when liver cells are injured. […] A low liver toxicity and a high lymphocyte toxicity as a surrogate for inhibition of tumor cell growth is the desirable feature."}, "[1]": {"assay": "Stability of PX-866 in buffer systems by HPLC", "format": "physicochemical", "conditions": "for % remaining / % degradation: 1 mg/mL; for % remaining: within 2 hours, 4° C.; for % degradation: after 2 hours of storage", "description": "This solution was used as a stock to make the various test buffer solutions to be analyzed. The stock, in each case, was diluted 1:10 to a final storage concentration of 1 mg/mL with 5% dextrose for injection (D5W), sterile water for injection (SW), 0.9% sodium chloride for injection (NS), absolute ethanol (EtOH), and 20 mM sodium phosphate (NaH2PO4) buffer. Prior to analysis the test buffers were further diluted 1:100, to a final analytical concentration of 10 μg/mL, with 50:50 0.2% formic acid:methanol, v:v. 50 μL of each sample was then injected into the HPLC system (Alliance 2695 Separation Module, Waters, Milford, Mass.; see Table 2 for HPLC parameters) for analysis. The 2 hour and 24 hour test samples were stored, undiluted, at 4° C. prior to analysis while the 0 hour samples were immediately quantified following dilution."}, "[2]": {"assay": "In vitro metabolism in murine S9 fractions", "format": "in vitro ADME", "conditions": "phase I, phase II and phase I/II reactions, 60 min", "description": "Metabolites generated in these reactions were identified by HPLC runs, using a wavelength of 310 nm (see FIG. 6C). Peaks representing metabolites were identified by comparing the HPLC profiles (at 310 nm) in chromatograms from 0 min and 60 min reaction times. The corresponding mass spectral (MS) analysis of these peaks, using quadrupolar time-of-flight MS allowed the accurate mass of the metabolites to be determined (see FIG. 6D). Metabolynx software (Waters-MicroMass, Milford, Mass.) was used to interpret the spectra.\nWe identified the M#1 as a reduction product which is most probably a non-microsomal carbonyl reduction of a ketone to a secondary alcohol, as described in previous metabolism studies. In addition, M#2-3 were the same reduction products however, the alteration in retention time may indicate that the molecule undergoes reduction in sites other than that observed with M#1."}, "mTOR": {"target": "mTOR (Homo sapiens, UniProt P42345)", "assay": "mTOR inhibition (Table 1)", "format": "biochemical"}, "[3]": {"conditions": "from U.S. application Ser. No. 11/178,553; cited from earlier work"}, "PI-3 kinase": {"target": "PI-3 kinase", "format": "biochemical", "conditions": "read-out: PI-3 kinase inhibition IC50"}, "[4]": {"test_system": "HT-29 human colon cancer cells", "assay": "Cytotoxicity / cell growth inhibition in HT-29 cells, cell number by flow cytometry", "format": "cell-based", "conditions": "read-out: growth inhibitory concentration 50% (IC50)", "description": "The compounds were added from a 10 mg/ml stock solution in ethanol. Cell number was determined after 3 days by flow cytometry using a Guava EasyCyte Plus flow cytometer (Guava Technologies). The results are expressed as cell number at the end of the assay as percent of the control value with no drug. Values are the mean of 3 determinations and bars are standard deviation."}, "[5]": {"target": "T1, recombinant bovine p110α/p85α (Bos taurus, UniProt P32871)", "T1 construct": "purchased Jena Bioscience, Jena, Germany", "T1 sequence (P32871 whole entry)": "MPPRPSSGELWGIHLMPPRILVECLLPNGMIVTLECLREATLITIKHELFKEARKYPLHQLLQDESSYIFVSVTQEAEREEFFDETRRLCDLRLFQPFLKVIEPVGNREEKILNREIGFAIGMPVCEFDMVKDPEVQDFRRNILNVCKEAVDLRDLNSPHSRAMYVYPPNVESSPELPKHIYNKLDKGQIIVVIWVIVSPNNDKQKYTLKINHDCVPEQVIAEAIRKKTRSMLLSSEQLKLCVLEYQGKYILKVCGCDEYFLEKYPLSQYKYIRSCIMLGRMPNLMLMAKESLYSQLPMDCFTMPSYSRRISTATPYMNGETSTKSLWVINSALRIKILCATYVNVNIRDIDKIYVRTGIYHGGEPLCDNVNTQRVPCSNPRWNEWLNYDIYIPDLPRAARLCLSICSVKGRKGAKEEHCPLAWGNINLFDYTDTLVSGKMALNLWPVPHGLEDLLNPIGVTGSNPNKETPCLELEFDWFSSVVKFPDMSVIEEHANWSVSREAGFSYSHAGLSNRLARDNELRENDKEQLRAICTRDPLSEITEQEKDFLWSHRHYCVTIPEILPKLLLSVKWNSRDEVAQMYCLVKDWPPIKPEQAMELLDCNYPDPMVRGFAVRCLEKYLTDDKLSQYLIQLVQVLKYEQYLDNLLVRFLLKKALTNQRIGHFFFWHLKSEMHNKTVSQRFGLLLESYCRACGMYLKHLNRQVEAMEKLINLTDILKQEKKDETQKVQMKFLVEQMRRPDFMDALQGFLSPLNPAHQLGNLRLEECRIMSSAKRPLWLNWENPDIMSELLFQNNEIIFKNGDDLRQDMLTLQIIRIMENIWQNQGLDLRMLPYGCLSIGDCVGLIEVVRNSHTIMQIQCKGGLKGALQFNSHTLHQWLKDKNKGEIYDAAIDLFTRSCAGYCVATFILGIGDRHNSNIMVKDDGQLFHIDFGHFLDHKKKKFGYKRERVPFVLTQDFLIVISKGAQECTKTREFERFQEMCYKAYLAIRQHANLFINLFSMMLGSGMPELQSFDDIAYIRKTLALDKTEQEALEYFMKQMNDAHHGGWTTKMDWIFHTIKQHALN", "T1 sequence (P23727 whole entry partner)": "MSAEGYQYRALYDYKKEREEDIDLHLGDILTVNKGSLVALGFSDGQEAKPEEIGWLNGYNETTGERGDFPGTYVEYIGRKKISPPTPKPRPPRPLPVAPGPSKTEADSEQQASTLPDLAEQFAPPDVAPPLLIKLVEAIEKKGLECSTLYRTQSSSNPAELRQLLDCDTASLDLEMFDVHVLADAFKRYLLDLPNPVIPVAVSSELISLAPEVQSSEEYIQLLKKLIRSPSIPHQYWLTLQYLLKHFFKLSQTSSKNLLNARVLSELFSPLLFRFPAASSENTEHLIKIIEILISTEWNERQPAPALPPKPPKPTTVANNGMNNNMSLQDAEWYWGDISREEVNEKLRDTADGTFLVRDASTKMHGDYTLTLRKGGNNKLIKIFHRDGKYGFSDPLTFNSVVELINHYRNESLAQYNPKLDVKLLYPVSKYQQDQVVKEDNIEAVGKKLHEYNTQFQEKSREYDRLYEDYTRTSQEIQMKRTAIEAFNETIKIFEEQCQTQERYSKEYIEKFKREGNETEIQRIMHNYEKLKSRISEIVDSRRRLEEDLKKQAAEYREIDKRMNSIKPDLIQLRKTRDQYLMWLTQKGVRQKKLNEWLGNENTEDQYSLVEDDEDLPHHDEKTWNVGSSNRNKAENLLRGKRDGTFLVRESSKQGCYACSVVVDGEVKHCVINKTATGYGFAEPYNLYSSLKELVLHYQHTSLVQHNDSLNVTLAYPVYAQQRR", "assay": "Recombinant PI-3 kinase inhibition, [32P]γ-ATP dependent phosphorylation of phosphatidylinositol", "format": "biochemical"}, "[6]": {"target": "T2, recombinant human p110δ/p85α (Homo sapiens, UniProt O00329)", "T2 construct": "purchased Upstate, Charlottesville, Va", "T2 sequence (O00329 whole entry)": "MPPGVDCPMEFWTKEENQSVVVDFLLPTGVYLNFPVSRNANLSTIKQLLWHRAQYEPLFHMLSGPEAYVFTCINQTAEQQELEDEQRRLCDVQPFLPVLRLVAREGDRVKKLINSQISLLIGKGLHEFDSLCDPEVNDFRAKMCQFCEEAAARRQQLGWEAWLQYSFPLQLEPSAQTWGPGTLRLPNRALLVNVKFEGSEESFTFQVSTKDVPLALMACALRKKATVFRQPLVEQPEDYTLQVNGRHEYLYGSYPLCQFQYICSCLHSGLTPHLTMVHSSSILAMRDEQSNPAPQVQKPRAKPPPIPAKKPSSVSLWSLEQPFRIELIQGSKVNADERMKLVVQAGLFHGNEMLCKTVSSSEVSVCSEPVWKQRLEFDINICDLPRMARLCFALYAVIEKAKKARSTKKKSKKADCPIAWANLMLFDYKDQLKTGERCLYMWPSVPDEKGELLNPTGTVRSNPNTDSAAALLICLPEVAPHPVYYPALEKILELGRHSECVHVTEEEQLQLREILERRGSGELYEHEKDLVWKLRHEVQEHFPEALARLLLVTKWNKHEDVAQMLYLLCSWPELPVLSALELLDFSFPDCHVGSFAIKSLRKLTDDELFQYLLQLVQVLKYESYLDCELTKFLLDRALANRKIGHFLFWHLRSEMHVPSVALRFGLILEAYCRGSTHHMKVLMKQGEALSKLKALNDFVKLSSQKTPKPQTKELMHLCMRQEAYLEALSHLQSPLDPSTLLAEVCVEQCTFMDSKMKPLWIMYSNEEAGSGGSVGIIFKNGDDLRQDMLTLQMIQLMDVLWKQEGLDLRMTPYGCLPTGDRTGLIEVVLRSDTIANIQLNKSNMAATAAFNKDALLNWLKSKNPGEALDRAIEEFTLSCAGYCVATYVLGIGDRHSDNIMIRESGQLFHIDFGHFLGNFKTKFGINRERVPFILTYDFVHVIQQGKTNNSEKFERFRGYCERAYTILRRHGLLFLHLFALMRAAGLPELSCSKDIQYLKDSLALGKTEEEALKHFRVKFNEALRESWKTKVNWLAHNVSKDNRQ", "T2 sequence (P27986 whole entry partner)": "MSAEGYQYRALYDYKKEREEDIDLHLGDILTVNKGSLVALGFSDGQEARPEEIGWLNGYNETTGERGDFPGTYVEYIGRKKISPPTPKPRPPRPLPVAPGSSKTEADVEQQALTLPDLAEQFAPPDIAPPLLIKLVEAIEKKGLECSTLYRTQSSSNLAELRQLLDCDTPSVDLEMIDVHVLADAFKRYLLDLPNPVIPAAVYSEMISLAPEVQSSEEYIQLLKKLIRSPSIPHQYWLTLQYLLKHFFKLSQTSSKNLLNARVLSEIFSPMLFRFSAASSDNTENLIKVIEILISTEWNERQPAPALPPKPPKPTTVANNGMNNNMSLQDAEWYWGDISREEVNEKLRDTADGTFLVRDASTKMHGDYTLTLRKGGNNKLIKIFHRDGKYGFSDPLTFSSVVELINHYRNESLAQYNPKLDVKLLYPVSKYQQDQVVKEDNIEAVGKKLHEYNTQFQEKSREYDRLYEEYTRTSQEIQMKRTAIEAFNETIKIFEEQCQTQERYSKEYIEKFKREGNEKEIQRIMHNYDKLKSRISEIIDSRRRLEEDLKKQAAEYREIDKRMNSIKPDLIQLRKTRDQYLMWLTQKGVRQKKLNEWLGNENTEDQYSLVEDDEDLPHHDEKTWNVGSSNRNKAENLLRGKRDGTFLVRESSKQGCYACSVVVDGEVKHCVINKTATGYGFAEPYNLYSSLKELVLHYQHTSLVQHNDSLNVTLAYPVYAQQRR", "assay": "Recombinant PI-3 kinase inhibition, [32P]γ-ATP dependent phosphorylation of phosphatidylinositol", "format": "biochemical"}, "[7]": {"test_system": "phospho-Ser^473-Akt in HT-29 colon cancer cells", "assay": "Inhibition of EGF-dependent activation of Akt (phospho-Ser473-Akt western blot)", "format": "cell-based, human", "conditions": "HT-29 cells, 4 hours exposure, EGF 50 ng/ml for 20 minutes", "description": "The cells were then stimulated with epidermal growth factor (EGF) at 50 ng/ml for 20 minutes. Cells were lysed and the proteins were separated on an SDS-PAGE and transferred to nitrocellulose."}, "[8]": {"conditions": "HT-29 cells, 3 days, cell number as percent of control"}}, "note": "Read-outs that look alike come from different tables or passages of the source."}
{"compound": "COC[C@H]1OC(=O)c2coc3c2[C@@]1(C)C1=C(C3=O)[C@@H]2CCC(=O)[C@@]2(C)C[C@H]1OC(C)=O", "note": "[Wortmannin, wortmannin, reference compound]", "values": [{"measurement": "IC50", "setting": "NCI cell panel", "value": 8.9, "unit": "µM"}]}
{"compound": "C=CCN(/C=C1/C(=O)O[C@H](COC)[C@@]2(C)C1=C(O)C(=O)C1=C2[C@H](OC(C)=O)C[C@]2(C)C(=O)CC[C@@H]12)CC=C", "note": "[PX-866, Acetic acid 4-diallylaminomethylene-6-hydroxy-1-α-methoxymethyl-10β,13β-dimethyl-3,7,17-trioxo-1,3,4,7,10,11β,12,13,14α,15,16,17-dodecahydro-2-oxa-cyclopenta[α]phenanthren-11-yl ester]", "values": [{"measurement": "% remaining", "setting": "[1]; 20 mM sodium phosphate buffer", "value": "> 60", "unit": "%"}, {"measurement": "% remaining", "setting": "[1]; D5W (5% dextrose for injection)", "value": "> 80", "unit": "%"}, {"measurement": "% degradation", "setting": "[1]; EtOH (absolute ethanol)", "value": "< 10", "unit": "%"}, {"measurement": "% degradation", "setting": "[1]; NS (0.9% sodium chloride for injection)", "value": "< 10", "unit": "%"}, {"measurement": "% degradation", "setting": "[1]; SW (sterile water for injection)", "value": "< 10", "unit": "%"}, {"measurement": "stability from 2 to 24 hours", "setting": "[1]; regardless of the buffer system employed", "value": "maintained relative stability"}, {"measurement": "type of metabolites formed", "setting": "[2]", "value": "only Phase I-type metabolites were formed"}, {"measurement": "IC50", "setting": "mTOR; read-out: mTOR inhibition IC50", "value": "> 3", "unit": "µM"}, {"measurement": "IC50", "setting": "NCI cell panel", "value": 2.2, "unit": "µM"}, {"measurement": "blood levels following oral administration", "setting": "[3]", "value": "low"}, {"measurement": "IC50", "setting": "PI-3 kinase", "value": 0.0005, "unit": "µM"}, {"measurement": "IC50", "setting": "[4]; Homo sapiens, HT-29, 72 h", "value": 4, "unit": "µM"}]}
{"compound": "11-deacetylated,17-hydroxy PX-866 [PX-866-1]", "values": [{"measurement": "inhibition of p110α isoform of PI-3 kinase", "setting": "[5]", "value": "considerably less active"}, {"measurement": "inhibition of p110δ isoform of PI-3 kinase", "setting": "[6]", "value": "considerably less active"}, {"measurement": "IC50 for inhibition of phospho-Ser473-Akt (ratio to total Akt)", "setting": "[7]", "value": "greater than 70 nM"}, {"measurement": "IC50", "setting": "[4]; [8]", "value": 4.5, "unit": "µM"}]}
{"compound": "COCC1OC(=O)C(=CN2CCCC2)C2=C(O)C(=O)C3=C(C(OC(C)=O)CC4(C)C(=O)CCC34)C21C", "note": "(stereo not drawn) [PX-867, Acetic acid 6-hydroxy-1α-methoxymethyl-10β,13β-dimethyl-3,7,17-trioxo-4-pyrrolidin-1-yl-methylene-1,3,4,7,10,11β,12,13,14α,15,16,17-dodecahydro-2-oxa-cyclopenta[α]phenanthren-11-yl]", "values": [{"measurement": "IC50", "setting": "mTOR", "value": "> 3", "unit": "µM"}, {"measurement": "IC50", "setting": "NCI cell panel", "value": 0.5, "unit": "µM"}, {"measurement": "IC50", "setting": "PI-3 kinase", "value": 0.0011, "unit": "µM"}]}
{"compound": "17-hydroxy PX-866 [PX-866-2]", "values": [{"measurement": "inhibition of p110α isoform of PI-3 kinase", "setting": "[5]", "value": "as active as PX-866 or wortmannin"}, {"measurement": "inhibition of p110δ isoform of PI-3 kinase", "setting": "[6]", "value": "as active as PX-866 or wortmannin"}, {"measurement": "IC50 for inhibition of phospho-Ser473-Akt (ratio to total Akt)", "setting": "[7]", "value": 0.04, "unit": "µM"}, {"measurement": "IC50", "setting": "[4]; [8]", "value": "> 50", "unit": "µM"}]}
